According to PubChem BioAssay AID1963848 (Molecular Pharmacology Branch, DTP, NCI, 2024):

Tested on: 379773-124-R-J2-PDC spheroid viability
Assay: Anticancer human tumor 379773-124-R-J2-PDC patient-derived endometrial carcinoma cell line growth inhibition [POLQ]
Conditions: spheroids with HUVEC and MSC; for IC50: curve of first compound; for viability, T/C: stronger effect = lower value
Method in brief: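 PDC + HUVEC + MSC complex spheroids; POLQ inhibitors ± partner drugs; top conc. at/near clinical Cmax, else 10 microM (SN-38 1 microM), half-log dilutions; 37 degrees C, 5% CO2.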
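Note: spheroids exposed to drugs for seven days before readout.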
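Throughout, for viability, T/C: percent viability relative to DMSO vehicle control taken as 100%.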

For `CCc1cc2c(N3CCc4c(cc(Cn5ccnc5)cc4-c4cn(C)nc4C(F)(F)F)C3=O)cc(C)nc2c(OC)n1` + COC1C(OC(N)=O)C(O)C(Oc2ccc3c(O)c(NC(=O)c4ccc(O)c(CC=C(C)C)c4)c(=O)oc3c2C)OC1(C)C, the IC50 (second compound 0.0316 µM) was 1220 nM, the IC50 (second compound 0.1 µM) was 2130 nM and the IC50 (second compound 0.316 µM) was 3320 nM. It also gave an IC50 (second compound 1 µM) of 1500 nM, an IC50 (second compound 3.16 µM) of 2070 nM and an IC50 (second compound 10 µM) of 3150 nM. For the same compound, the viability, T/C (second compound 0.0316 µM, first compound 0.0316 µM) was 68.2%, the viability, T/C (second compound 0.0316 µM, first compound 0.1 µM) was 63.2% and the viability, T/C (second compound 0.0316 µM, first compound 0.316 µM) was 53.7%. For the same compound, the viability, T/C (second compound 0.0316 µM, first compound 1 µM) was 53%, the viability, T/C (second compound 0.0316 µM, first compound 3.16 µM) was 45.5% and the viability, T/C (second compound 0.0316 µM, first compound 10 µM) was 48.5%. For the same compound, the viability, T/C (second compound 0.1 µM, first compound 0.0316 µM) was 62.2%, the viability, T/C (second compound 0.1 µM, first compound 0.1 µM) was 62.3% and the viability, T/C (second compound 0.1 µM, first compound 0.316 µM) was 58.1%. The viability, T/C (second compound 0.1 µM, first compound 1 µM) was 51.3%, the viability, T/C (second compound 0.1 µM, first compound 3.16 µM) was 49.4% and the viability, T/C (second compound 0.1 µM, first compound 10 µM) was 41.7%. The viability, T/C (second compound 0.316 µM, first compound 0.0316 µM) was 68.5%, the viability, T/C (second compound 0.316 µM, first compound 0.1 µM) was 63.6% and the viability, T/C (second compound 0.316 µM, first compound 0.316 µM) was 63.8%. The viability, T/C (second compound 0.316 µM, first compound 1 µM) was 52.6%, the viability, T/C (second compound 0.316 µM, first compound 3.16 µM) was 49.2% and the viability, T/C (second compound 0.316 µM, first compound 10 µM) was 46.3%. It also gave a viability, T/C (second compound 1 µM, first compound 0.0316 µM) of 66.4%, a viability, T/C (second compound 1 µM, first compound 0.1 µM) of 69.4% and a viability, T/C (second compound 1 µM, first compound 0.316 µM) of 58.1%. The viability, T/C (second compound 1 µM, first compound 1 µM) was 54.6%, the viability, T/C (second compound 1 µM, first compound 3.16 µM) was 43.8% and the viability, T/C (second compound 1 µM, first compound 10 µM) was 37.8%. For the same compound, the viability, T/C (second compound 3.16 µM, first compound 0.0316 µM) was 68.4%, the viability, T/C (second compound 3.16 µM, first compound 0.1 µM) was 59.6% and the viability, T/C (second compound 3.16 µM, first compound 0.316 µM) was 50.1%. The viability, T/C (second compound 3.16 µM, first compound 1 µM) was 55.8%, the viability, T/C (second compound 3.16 µM, first compound 3.16 µM) was 50% and the viability, T/C (second compound 3.16 µM, first compound 10 µM) was 46.5%. For the same compound, the viability, T/C (second compound 10 µM, first compound 0.0316 µM) was 77%, the viability, T/C (second compound 10 µM, first compound 0.1 µM) was 58.7% and the viability, T/C (second compound 10 µM, first compound 0.316 µM) was 61.5%. The viability, T/C (second compound 10 µM, first compound 1 µM) was 55.7%, the viability, T/C (second compound 10 µM, first compound 3.16 µM) was 54.9% and the viability, T/C (second compound 10 µM, first compound 10 µM) was 42.2%.
